What was measured:
[1] = system: P. juglandis; assay: GC-EAD (electroantennal detection) of volatile extract; design: species or system Pityophthorus juglandis; details: extract of J. hindsii with male and female P. juglandis feeding 45 hr
Method: Gas Chromatography-Electroantennal Detection (GC-EAD). GC-EAD analysis was performed on the extract of walnut (Juglans hindsii) with male and female P. juglandis feeding for 45 hr (pentane extract (7)). The sample was analyzed with an HP5890 GC with the following conditions: DB-5 column 30 m×0.32, oven 50° C. for 1 min, temperature programmed at 20° C./min to a final temperature of 280° C.

[2] = system: walnut twig beetle (WTB), Pityophthorus juglandis; assay: Example 1 Field Test 1: flight response to X and related isomers, yellow sticky card traps; type: in vivo
Method: Field Bioassays of Semiochemicals. […] Contech Enterprises Inc., Delta, British Columbia, Canada) and attached to yellow sticky card traps ([…], OK). In addition, synthesized (+) and (-) enantiomers of trans-conophthorin were tested in 400 μl polyethylene Eppendorf microcentrifuge tubes. Four field studies were conducted (Table 2) that tested the flight responses to: 3-methyl-2-buten-l-ol and related isomers (Field Test 1); 3-methyl-2-buten-l-ol with and without racemic trans-conophthorin (Field Test 2); 3-methyl-2-buten-l-ol with and without the purified enantiomers of trans-conophthorin (Field Test 3); and 3-methyl-2-buten-l-ol with and without racemic chalcogran (Field Test 4). [table] Statistical Analysis. Field Tests 1-4 were each analyzed for treatment effect by using Friedman's non-parametric analysis of variance. (See Zar, J. H. 2010. Biostatistical Analysis, 5th Ed. Pearson Prentice Hall, New Jersey). Males and females were subjected to separate analyses. All treatments within experiments yielding a significant treatment effect were compared by using an a posteriori Nemenyi test (Zar 2010) with experimentwise α=0.05. Sex ratios of responding WTB were determined using Cochran's method for unbiased sampling (See Cochran, W. G. 1977. Sampling Techniques, 3rd ed. John Wiley, New York), with 95% confidence intervals calculated by using the Clopper-Pearson method. (See Zar, J. H. 2010. Biostatistical Analysis, 5th Ed. Pearson Prentice Hall, New Jersey).

[3] = system: WTB; assay: Two release rate (pouch vs. bottle) experiment, 4-unit Lindgren funnel traps; type: in vivo, Pityophthorus juglandis; details: for trap catches, female WTB / trap catches, male WTB: N=40
Method: Field Testing of Various Release Rates of 3-methyl-2-buten-1-ol. The flight response of WTB to two release rates of 3-methyl-2-buten-1-ol was tested at the Wolfskill Experimental Orchards (the Juglans collection of the USDA ARS National Clonal Germplasm Repository in Winters, Solano Co., Calif.) in late spring. The two release rates were: 1) 15-80 mg/d (depending on temperature, as per manufacturer's data), delivered from a commercially available LDPE plastic pouch (Product #300000736, RD-1039, Contech Enterprises Inc., Delta, BC, Canada); and 2) 5 mg/d (based on laboratory assessments at 25° C. and 30° C.), delivered from a 15 ml polyethylene bottle charged with 15 ml of 3-methyl-2-buten-1-ol [≧98% chemical purity, product #W364703, SAFC (=Sigma-Aldrich), St. Louis Mo.]. The pouch or bottle was suspended in the middle of a 4-unit Lindgren funnel trap (Contech), attached to the funnel strut so it rested on the inside surface of the third funnel (counted from the trap top), without blocking the central axis/interior hole of the trap. The trap cup was filled with propylene glycol-based recreational vehicle/marine antifreeze to a depth of about 2.5 to 5 cm, and the traps were hung from poles at a height of approximately 3 m. (See Seybold, S. J., Dallara, P. L., Hishinuma, S. M., and Flint, M. L. Detecting and Identifying the Walnut Twig Beetle: Monitoring Guidelines for the Invasive Vector of Thousand Cankers Disease of Walnut, University of California Agriculture and Natural Resources, Statewide Integrated Pest Management Program, 11 pp., Apr. 30, 2012). The two treatments were replicated in four spatial blocks and the treatments were re-randomized between the two trap stations in a block each time the traps were emptied (nearly every day).
(§1) Statistical Analyses. Analysis of treatment effects for the pouch vs. bottle experiment was done by using a sign test. (See Zar, J. H. 2010. Biostatistical Analysis. 5th ed. Pearson Prentice Hall, Englewood Cliffs, N.J.) The other four experiments were analyzed for treatment effect by using Friedman's non-parametric analysis of variance. Id. In all experiments, males and females were analyzed separately. All treatments within experiments yielding a significant treatment effect were compared by using an a posteriori Nemenyi test with experimentwise α=0.05. Id. For all experiments, differences among proportions of female WTB responding to treatments were analyzed by comparing 95% confidence intervals determined with the Clopper-Pearson method. Id.

[4] = system: WTB; assay: Example 2 Field Test 3: X and racemic trans-pityol; type: in vivo, Pityophthorus juglandis; details: 4-unit Lindgren funnel traps
Method: Finally, a flight bioassay of the effect of the compound racemic trans-“pityol” [2-(1-hydroxy-1-methylethyl)-5-methyltetrahydrofuran] was conducted in late summer/early fall at Wolfskill Experimental Orchards. Pityol is a component of the aggregation pheromone of conifer-infesting Pityophthorus species. The response of WTB to racemic trans-pityol (formulated in a polyvinylchloride plastic bubble cap release device, 40 mg load, 0.2 mg/d release rate at 20° C., product #300000272, Contech Enterprises) and pityol in combination with 3-methyl-2-buten-1-ol (release rate 15-80 mg/d, LDPE plastic pouch Contech) was tested (Table 3, Field Test 3). The four treatments were replicated in three spatial blocks and the treatments were re-randomized among the four trap stations in a block each time the traps were emptied (nearly every day).
as §1

[5] = about three months in summer, Davis CA, N=21
[6] = release rate 5 mg/d (bottle with 15 ml load)
[7] = release rate 15-80 mg/d (pouch)
[8] = X 15-80 mg/d, pityol 0.2 mg/d, N=93

`CC(C)=CCO` [X, 3-methyl-2-buten-1-ol] was tested, and the “antennal activity by GC-EAD” value [1] was “antenally active”, the “flight attraction” value [2] was “attractive to males and females” and the “proportion of females responding” value ([2]; Davis CA) was 0.65. The “trap catches, female WTB” value [2, 5] was 438, the “trap catches, male WTB” value [2, 5] was 233 and the “proportion of females responding” value ([3]; higher release rate (15-80 mg/d)) was 0.71. The “proportion of females responding” value ([3]; lower release rate (5 mg/d)) was 0.63, the “trap catches, female WTB” value [3, 6] was 3072 and the “trap catches, male WTB” value [3, 6] was 1828. For the same molecule, the “trap catches, female WTB” value [3, 7] was 3085, the “trap catches, male WTB” value [3, 7] was 1284 and the “difference between release rate treatments” value ([3]; two-sided sign test, pouch vs bottle) was “male response was greater for the lower release rate plastic bottle treatment”. For the same molecule, the “proportion of females responding” value [4] was 0.80, the “trap catches, female WTB” value [4, 8] was 2100 and the “trap catches, male WTB” value [4, 8] was 539.
